Several values for one entry are separate records, joined by “and”; a condition that tells them apart may be missing. Equal values may be shown once. Inconclusive results and toxic doses are left out. How the source made its calls: active means survival T/C of 150% or more; inactive means T/C below 125% in these data.
System: CD2F1 mice, L1210 leukemia ip, survival T/C
Test: NCI In Vivo Anticancer Drug Screen. Data for tumor model L1210 Leukemia (intraperitoneal) in CD2F1 (CDF1) mice
Settings: higher = longer survival
Procedure, shortened: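 In this screen, transplantable tumors were grown in mice given either the compound or its vehicle. Results were expressed as the treated measurement relative to the control measurement.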

[1] = endpoint: mean survival time, dose: 12.5 mg/kg/injection, schedule: Q01DX009 (ip), vehicle: saline with Tween-80
[2] = endpoint: mean survival time, dose: 25.0 mg/kg/injection, schedule: Q01DX009 (ip), vehicle: saline with Tween-80
[3] = endpoint: mean survival time, dose: 50.0 mg/kg/injection, schedule: Q01DX009 (ip), vehicle: saline with Tween-80
[4] = endpoint: mean survival time, dose: 100.0 mg/kg/injection, schedule: Q01DX009 (ip), vehicle: saline with Tween-80
[5] = endpoint: mean survival time, dose: 100.0 mg/kg/injection, schedule: Q04DX002 (ip), vehicle: saline with Tween-80
[6] = endpoint: mean survival time, dose: 400.0 mg/kg/injection, schedule: Q04DX002 (ip), vehicle: saline with Tween-80
[7] = endpoint: mean survival time, dose: 200.0 mg/kg/injection, schedule: Q04DX002 (ip), vehicle: saline with Tween-80
[8] = endpoint: mean survival time, dose: 25.0 mg/kg/injection, schedule: Q04DX003 (ip), vehicle: saline with Tween-80
[9] = endpoint: mean survival time, dose: 50.0 mg/kg/injection, schedule: Q04DX003 (ip), vehicle: saline with Tween-80
[10] = endpoint: mean survival time, dose: 100.0 mg/kg/injection, schedule: Q04DX003 (ip), vehicle: saline with Tween-80
[11] = endpoint: mean survival time, dose: 200.0 mg/kg/injection, schedule: Q01DX009 (ip), vehicle: saline with Tween-80
[12] = endpoint: mean survival time, dose: 200.0 mg/kg/injection, schedule: Q04DX003 (ip), vehicle: saline with Tween-80
[13] = endpoint: mean survival time, dose: 400.0 mg/kg/injection, schedule: Q04DX003 (ip), vehicle: saline with Tween-80

Measured: T/C

CC(=O)OCc1ncccc1OC(C)=O
inactive: endpoint: mean survival time, dose: 25.0 mg/kg/injection, schedule: Q01DX009 (ip), vehicle: suspension in saline 102 % of control | endpoint: mean survival time, dose: 50.0 mg/kg/injection, schedule: Q01DX009 (ip), vehicle: suspension in saline 98 % of control | endpoint: mean survival time, dose: 100.0 mg/kg/injection, schedule: Q01DX009 (ip), vehicle: suspension in saline 102 % of control | endpoint: mean survival time, dose: 200.0 mg/kg/injection, schedule: Q01DX009 (ip), vehicle: suspension in saline 93 % of control

[Pt+4].[c-]1ccccc1C1CCCC[N-]1.[c-]1ccccc1C1CCCC[N-]1 (stereo not given)
inactive: endpoint: median survival time, dose: 3.12 mg/kg/injection, schedule: Q04DX003 (ip), vehicle: saline 107 % of control | endpoint: median survival time, dose: 6.25 mg/kg/injection, schedule: Q04DX003 (ip), vehicle: saline 107 % of control | endpoint: median survival time, dose: 12.5 mg/kg/injection, schedule: Q04DX003 (ip), vehicle: saline 103 % of control | endpoint: median survival time, dose: 25.0 mg/kg/injection, schedule: Q04DX003 (ip), vehicle: saline 103 % of control | endpoint: median survival time, dose: 50.0 mg/kg/injection, schedule: Q04DX003 (ip), vehicle: saline 107 % of control | endpoint: median survival time, dose: 100.0 mg/kg/injection, schedule: Q04DX003 (ip), vehicle: saline 103 % of control | endpoint: median survival time, dose: 200.0 mg/kg/injection, schedule: Q04DX003 (ip), vehicle: saline 103 % of control

C=C(C)[C@@H]1CCc2c(O)c(O)c(=O)cc(C)c2C1
inactive: endpoint: mean survival time, dose: 3.12 mg/kg/injection, schedule: Q01DX009 (ip), vehicle: saline with Tween-80 89 % of control | endpoint: mean survival time, dose: 6.25 mg/kg/injection, schedule: Q01DX009 (ip), vehicle: saline with Tween-80 96 % of control | [1] 93 % of control | [2] 95 % of control | [3] 106 % of control | [4] 108 % of control

COc1ccc(NC(=O)Nc2ccccc2C)c(Cl)c1
inactive: endpoint: mean survival time, dose: 25.0 mg/kg/injection, schedule: Q04DX002 (ip), vehicle: saline with Tween-80 94 % of control | endpoint: mean survival time, dose: 50.0 mg/kg/injection, schedule: Q04DX002 (ip), vehicle: saline with Tween-80 98 % of control | [5] 86 % of control and 90 % of control | [6] 86 % of control

c1ccc2c(c1)[As]=c1ccccc1=[As]2 (stereo not given)
inactive: endpoint: median survival time, dose: 1.5 mg/kg/injection, schedule: Q01DX009 (ip), vehicle: saline with Tween-80 108 % of control | endpoint: median survival time, dose: 3.0 mg/kg/injection, schedule: Q01DX009 (ip), vehicle: saline with Tween-80 101 % of control | endpoint: median survival time, dose: 6.0 mg/kg/injection, schedule: Q01DX009 (ip), vehicle: saline with Tween-80 102 % of control and 104 % of control | endpoint: median survival time, dose: 12.0 mg/kg/injection, schedule: Q01DX009 (ip), vehicle: saline with Tween-80 113 % of control and 109 % of control | endpoint: median survival time, dose: 24.0 mg/kg/injection, schedule: Q01DX009 (ip), vehicle: saline with Tween-80 106 % of control | endpoint: median survival time, dose: 48.0 mg/kg/injection, schedule: Q01DX009 (ip), vehicle: saline with Tween-80 100 % of control

COc1cc2c(c(OC)c1OC)-c1cc3c(cc1[C@@H](OC(C)=O)[C@@H]1COC(=O)[C@H]1C2)OCO3
inactive: endpoint: mean survival time, dose: 1.25 mg/kg/injection, schedule: Q01DX009 (ip), vehicle: Klucel (hydroxypropylcellulose) (HPC) 95 % of control | endpoint: mean survival time, dose: 2.5 mg/kg/injection, schedule: Q01DX009 (ip), vehicle: Klucel (hydroxypropylcellulose) (HPC) 103 % of control | endpoint: mean survival time, dose: 5.0 mg/kg/injection, schedule: Q01DX009 (ip), vehicle: Klucel (hydroxypropylcellulose) (HPC) 97 % of control | endpoint: mean survival time, dose: 10.0 mg/kg/injection, schedule: Q01DX009 (ip), vehicle: Klucel (hydroxypropylcellulose) (HPC) 112 % of control

Cc1cc(S(=O)(=O)F)cc(Cl)c1OC(=S)N(C)C
inactive: [5] 96 % of control | [7] 96 % of control | [6] 92 % of control

CC(C)OC(=O)Nc1nc2ccccc2s1
inactive: [5] 92 % of control | [7] 95 % of control | [6] 92 % of control

N#CSc1nc2ccccc2s1
inactive: [2] 96 % of control | [3] 94 % of control | [4] 97 % of control

CCOC(=O)CCN(C(=O)OCc1ccccc1)N(C)C(=O)OCc1ccccc1
inactive: endpoint: mean survival time, dose: 25.0 mg/kg/injection, schedule: Q04DX003 (ip), vehicle: Klucel (hydroxypropylcellulose) (HPC) 91 % of control | endpoint: mean survival time, dose: 50.0 mg/kg/injection, schedule: Q04DX003 (ip), vehicle: Klucel (hydroxypropylcellulose) (HPC) 94 % of control | endpoint: mean survival time, dose: 100.0 mg/kg/injection, schedule: Q04DX003 (ip), vehicle: Klucel (hydroxypropylcellulose) (HPC) 89 % of control | endpoint: mean survival time, dose: 200.0 mg/kg/injection, schedule: Q04DX003 (ip), vehicle: Klucel (hydroxypropylcellulose) (HPC) 89 % of control | endpoint: mean survival time, dose: 400.0 mg/kg/injection, schedule: Q04DX003 (ip), vehicle: Klucel (hydroxypropylcellulose) (HPC) 100 % of control

CC#CC(=O)SCCNC(=O)CC(C)(C)C
inactive: [2] 96 % of control | [8] 105 % of control | [3] 96 % of control | [9] 96 % of control | [4] 95 % of control | [10] 106 % of control | [11] 97 % of control | [12] 98 % of control

CC(C)c1ccc2cc(C(C)C)ccc2c1
inactive: [10] 86 % of control | [12] 92 % of control | [13] 92 % of control

O.O.[Cl][Pt+2][Cl].[NH-]CC[NH-]
inactive: endpoint: median survival time, dose: 3.12 mg/kg/injection, schedule: Q04DX003 (ip), vehicle: distilled water + Tween-80 101 % of control | endpoint: median survival time, dose: 6.25 mg/kg/injection, schedule: Q04DX003 (ip), vehicle: distilled water + Tween-80 102 % of control | endpoint: median survival time, dose: 12.5 mg/kg/injection, schedule: Q04DX003 (ip), vehicle: distilled water + Tween-80 111 % of control | endpoint: median survival time, dose: 25.0 mg/kg/injection, schedule: Q04DX003 (ip), vehicle: distilled water + Tween-80 108 % of control | endpoint: median survival time, dose: 50.0 mg/kg/injection, schedule: Q04DX003 (ip), vehicle: distilled water + Tween-80 105 % of control

CC1=C/C(=C/c2ccccc2)CC(C)(C)C1 (tested in a mixture with another compound)
inactive: [2] 105 % of control | [3] 103 % of control | [4] 95 % of control | [10] 100 % of control

O=C1OC(c2ccccc2)(C2(c3ccccc3)OC(=O)c3ccccc32)c2ccccc21 (stereo not given)
inactive: [10] 89 % of control

C/C=C/COC1CCS(=O)(=O)C1 (stereo not given)
inactive: [3] 104 % of control | [4] 97 % of control | [11] 97 % of control

CCCCN1C(=O)c2c(Cl)c(Cl)c(Cl)c(Cl)c2C1=O
inactive: endpoint: mean survival time, dose: 25.0 mg/kg/injection, schedule: Q04DX002 (ip), vehicle: other 90 % of control | endpoint: mean survival time, dose: 50.0 mg/kg/injection, schedule: Q04DX002 (ip), vehicle: other 90 % of control | endpoint: mean survival time, dose: 100.0 mg/kg/injection, schedule: Q04DX002 (ip), vehicle: other 86 % of control

Cc1ccc(C(=O)C(=O)c2ccc(C)cc2C)c(C)c1
inactive: endpoint: mean survival time, dose: 75.0 mg/kg/injection, schedule: Q01DX001 (ip), vehicle: other 94 % of control | endpoint: mean survival time, dose: 150.0 mg/kg/injection, schedule: Q01DX001 (ip), vehicle: other 87 % of control | endpoint: mean survival time, dose: 300.0 mg/kg/injection, schedule: Q01DX001 (ip), vehicle: other 94 % of control

c1ccc2c(c1)-c1nc3ccccc3cc1C2N1CCCCC1 (stereo not given)
inactive: endpoint: mean survival time, dose: 100.0 mg/kg/injection, schedule: Q01DX009 (ip), vehicle: saline 105 % of control | endpoint: mean survival time, dose: 200.0 mg/kg/injection, schedule: Q01DX009 (ip), vehicle: saline 103 % of control | endpoint: mean survival time, dose: 400.0 mg/kg/injection, schedule: Q01DX009 (ip), vehicle: saline 97 % of control

CC(C)C(NC1=NCCO1)c1ccccc1 (stereo not given)
inactive: endpoint: mean survival time, dose: 12.5 mg/kg/injection, schedule: Q04DX003 (ip), vehicle: saline with Tween-80 106 % of control | [8] 98 % of control | [9] 104 % of control

CC(C)(C)NC(=O)CCC1C2C=CC(C2)C1C#N (stereo not given)
inactive: [10] 93 % of control | [12] 91 % of control | [13] 98 % of control

O=CN(SSN(C=O)C1CCCCC1)C1CCCCC1
inactive: [1] 95 % of control and 103 % of control | [2] 100 % of control and 108 % of control | [3] 94 % of control and 105 % of control | [4] 94 % of control and 98 % of control | [11] 94 % of control and 103 % of control | endpoint: mean survival time, dose: 400.0 mg/kg/injection, schedule: Q01DX009 (ip), vehicle: saline with Tween-80 93 % of control and 102 % of control

Source: PubChem BioAssay AID256 (DTP/NCI, 2004)
